Earlier results on 2 molecules are cited in patent EP3074407B1, “COMPOUND AND METHOD FOR SELECTIVE RADIOLABELLING OF POLYPEPTIDES BY MEANS OF SOLID-PHASE SYNTHESIS” (Freie Universität Berlin, priority 2013, dated 2015).

For data set [1] the following is noted: PET, Menschen, Primaten und Nagetieren; cited from earlier work.
The conditions of data set [2]: literature (Breeman et al. 1996); cited from earlier work.

For the molecule `FC(F)(F)c1nnnn1-c1ccc(OC[18F])c(CN[C@H]2CCCN[C@H]2c2ccccc2)c1` [18F-SPA-RQ], the “Aufnahme im Gehirn” value in data set [1] is “hohe Aufnahme”. Consider “[indium111-DTPA-Argl]substance P [In^111 markierten Substanz P-Agonisten]”, for which the “Durchlässigkeit der Blut-Hirn-Schranke” value in data set [2] is “undurchlässig”.
